Here are results for 1 compound from patent US7033583B2, “Polymeric thiol-linked prodrugs” (Enzon Pharmaceuticals, Inc., priority 2001, dated 2006).

The subject of assay [1] is P388/0 cell lines. Description: Cytotoxicity assay (Alamar Blue) in P388/0 cells. Format: cell-based. Conditions: Mus musculus, 72 h, 3 days. The procedure:
Cell Lines and Cytotoxicity Assays. Studies using P388/0 cell lines for IC50 (drug concentration inhibiting growth of cells by 50%) were maintained and conducted as previously reported. Briefly, for IC50 determination, cells were seeded into the microwell plates at a density of 2×10^3 cells per 50 μL per well. Plates were incubated at 37° C. in a humidified incubator with 5% CO2 for 3 days. Cell growth was measured by the addition of 10 μL/well of Alamar Blue (Alamar Biosciences, Inc., Sacramento, Calif.) and the plates were incubated a further 4 h at 37° C. The IC50 values for each compound were determined from absorbance versus dilution factor plots. All cell cultures for animal implantation were maintained at 37° C. in a humidified atmosphere of 5% CO2/95% O2 and subcultured once a week. All cell lines were periodically tested for Mycoplasma and were Mycoplasma free.
(In general: The colour change of resazurin is a common sign of viable cells or microbes.)

Assay [2] deals with Lung M109 Syngeneic Solid Tumors. Description: In vivo efficacy against M109 solid tumors. Further details: species or system Balb/C mice. Conditions: i.v. day 1 & 4; for T/C (%) at Day 25: control median tumor ~2000 mm^3. Here is the method:
M109 cells (NCI), derived from donor mice, were grown and expanded in tissue culture for in vivo implantation. Cells were grown in EMEM with 10% FBS and 1% streptomycin/penicillin media, kept in an incubator at 37° C. with 5% CO2 and split twice a week. Cells were trypsinized, harvested, washed, counted and prepared in PBS for transport to the vivarium. Cells were kept on ice until implantation was conducted with minimum lag time. A cell suspension of approximately 5×10^6 cells/mL was used. Balb/C mice were implanted subcutaneous with 100 μL of the above cell suspension (Day 0). Treatments were administered intravenously on Day 1 and Day 4. Compound doses were based on the content of 6-MP. Body weight and tumor volume were then measured twice weekly until the group's median tumor volume exceeded 2000 mm^3. The tumor volume for each mouse was determined by measuring two dimensions with calipers and calculated using the formula: tumor volume=(length×width^2)/2. Drug effects were determined by comparing tumor growth in treated versus control (no vehicle) mice. Three types of endpoints were used as the basis for comparison: (a) the percent difference in tumor volume (% T/C), measured when the control group's median tumor volume reached approximately 800–1100 mm^3 (exponential growth phase), (b) again when the control group's median tumor volume was approximately 2000 mm^3 and (c) the number of tumor regression (smaller tumor volume on Day 25 compared to Day 1) per group.

Compound `Sc1ncnc2nc[nH]c12` [Compound 1, 6-mercaptopurine, reference compound] displayed a half-inhibitory concentration (IC50) in assay [1] of 2670 nM. Further, the “inhibiting the growth of M109 solid tumors” value in assay [2] (Balb/C mice) is “ineffective”. For the same compound, the “T/C (%) at Day 18” value in assay [2] (total dose 60 mg/kg (6-MP content), control median tumor ~1000 mm^3) was 127.1%. Besides, the “T/C (%) at Day 25” value is reported as 122.0% in assay [2] (total dose 60 mg/kg (6-MP content)) and 183.8% in assay [2] (total dose 200 mg/kg).

The term IC50 denotes the concentration at which inhibition is half-maximal. High values mean weaker potency in that assay, low ones greater potency in that assay.
